In US20250332178A1, “METHODS OF TREATING MYCOBACTERIAL INFECTIONS USING TETRACYCLINE COMPOUNDS” (priority 2018, published 2025):
≈ marks a conversion by molar mass, not a printed value.

These molecules were tested on H37Rv strain of Mycobacterium tuberculosis (assay: MIC against H37Rv strain). Conditions: H37Rv.
Assay type: cell-based
Procedure: The purpose of this study was to test activity of selected tetracycline compounds against the H37Rv strain of Mycobacterium tuberculosis. Minimum inhibitory concentrations (MIC) of different tetracycline compounds against H37Rv strain were determined and are shown in Table 8.

Row | Compound | MIC [µg/mL]
1 | CC(C)CNCc1cc(N(C)C)c2c(c1O)C(=O)C1=C(O)[C@]3(O)C(=O)C(C(N)=O)=C(O)[C@@H](N(C)C)[C@@H]3C[C@@H]1C2 [Compound 14] | 16 (≈ 29.5 µM)

Same assay, conditions: Mycobacterium tuberculosis, H37RV

Row | Compound | MIC [µg/mL]
2 | CN(C)c1cc(CNC(=O)Oc2ccc(Br)cc2)c(O)c2c1C[C@H]1C[C@H]3[C@H](N(C)C)C(O)=C(C(N)=O)C(=O)[C@@]3(O)C(O)=C1C2=O [Compound 21] | 16 (≈ 23.3 µM)
3 | CC(CF)NCc1cc(N(C)C)c2c(c1O)C(=O)C1=C(O)[C@]3(O)C(=O)C(C(N)=O)=C(O)C(N(C)C)[C@@H]3C[C@@H]1C2 (stereo partly shown) [Compound 42] | 32 (≈ 58.5 µM)
4 | Cc1ccc(OC(=O)NCc2cc(N(C)C)c3c(c2O)C(=O)C2=C(O)[C@]4(O)C(=O)C(C(N)=O)=C(O)[C@@H](N(C)C)[C@@H]4C[C@@H]2C3)cc1 [Compound 20] | > 32

Same assay, conditions: Mycobacterium tuberculosis, H37RV; read-out: MIC

Row | Compound | MIC [µg/mL]
5 | CN(C)c1cc(CN2CCCC2)c(O)c2c1C[C@H]1C[C@H]3C(N(C)C)C(O)=C(C(N)=O)C(=O)[C@@]3(O)C(O)=C1C2=O (stereo partly shown) [Compound 83] | 32 (≈ 59.2 µM)
6 | CN(C)c1cc(CNCc2ccccc2)c(O)c2c1C[C@H]1C[C@H]3[C@H](N(C)C)C(O)=C(C(N)=O)C(=O)[C@@]3(O)C(O)=C1C2=O [Compound 66] | > 32
7 | CCc1cc(CNC(C)=O)c(O)c2c1C[C@H]1C[C@H]3C(N(C)C)C(O)=C(C(N)=O)C(=O)[C@@]3(O)C(O)=C1C2=O (stereo partly shown) [Compound 6] | > 32
8 | CN(C)[C@@H]1C(O)=C(C(N)=O)C(=O)[C@@]2(O)C(O)=C3C(=O)c4c(O)c(CNC(=O)c5cccnc5)cc(CCC5CCCCC5)c4C[C@H]3C[C@@H]12 [Compound 2] | > 32
9 | CN(C)c1cc(CNCC2CCNCC2)c(O)c2c1C[C@H]1C[C@H]3[C@@H](N(C)C)C(O)=C(C(N)=O)C(=O)[C@@]3(O)C(O)=C1C2=O [Compound 49] | > 32
10 | CN(C)c1cc(Cn2ccc(C=O)c2)c(O)c2c1C[C@H]1C[C@H]3[C@H](N(C)C)C(O)=C(C(N)=O)C(=O)[C@@]3(O)C(O)=C1C2=O [Compound 69] | > 32
11 | CN(C)c1ccc(NC(=O)NCc2cc(N(C)C)c3c(c2O)C(=O)C2=C(O)[C@]4(O)C(=O)C(C(N)=O)=C(O)[C@@H](N(C)C)[C@@H]4C[C@@H]2C3)cc1 [Compound 26] | 32 (≈ 49.3 µM)
12 | CN(C)[C@H]1C(O)=C(C(N)=O)C(=O)[C@@]2(O)C(O)=C3C(=O)c4c(O)c(CN)cc(-c5ccccc5)c4C[C@H]3C[C@@H]12 [Compound 32] | > 32
13 | CCc1cc(CNC(=O)CN(C)C)c(O)c2c1C[C@H]1C[C@H]3[C@@H](N(C)C)C(O)=C(C(N)=O)C(=O)[C@@]3(O)C(O)=C1C2=O [Compound 36] | 32 (≈ 57.5 µM)
14 | CN(C)c1cc(CNC(=O)OCC(Cl)(Cl)Cl)c(O)c2c1C[C@H]1C[C@H]3[C@H](N(C)C)C(O)=C(C(N)=O)C(=O)[C@@]3(O)C(O)=C1C2=O [Compound 22] | > 32
15 | CN(C)c1cc(CN2CCOCC2)c(O)c2c1C[C@H]1C[C@H]3[C@H](N(C)C)C(O)=C(C(N)=O)C(=O)[C@@]3(O)C(O)=C1C2=O [Compound 80] | 16 (≈ 28.7 µM)
16 | CN1CCC(NCc2cc(N(C)C)c3c(c2O)C(=O)C2=C(O)[C@]4(O)C(=O)C(C(N)=O)=C(O)[C@@H](N(C)C)[C@@H]4C[C@@H]2C3)CC1 [Compound 47] | > 32
17 | COCCOC(=O)NCc1cc(N(C)C)c2c(c1O)C(=O)C1=C(O)[C@]3(O)C(=O)C(C(N)=O)=C(O)[C@@H](N(C)C)[C@@H]3C[C@@H]1C2 [Compound 19] | > 32
18 | CN(C)c1cc(CNCC2CCCCC2)c(O)c2c1C[C@H]1C[C@H]3[C@H](N(C)C)C(O)=C(C(N)=O)C(=O)[C@@]3(O)C(O)=C1C2=O [Compound 57] | 32 (≈ 54.9 µM)
19 | CCc1cc(CNCC(C)C)c(O)c2c1C[C@H]1C[C@H]3[C@H](N(C)C)C(O)=C(C(N)=O)C(=O)[C@@]3(O)C(O)=C1C2=O [Compound 30] | > 32
20 | CN(C)c1cc(CNC(=O)C2(N)CC2)c(O)c2c1C[C@H]1C[C@H]3[C@H](N(C)C)C(O)=C(C(N)=O)C(=O)[C@@]3(O)C(O)=C1C2=O [Compound 59] | 16 (≈ 28.1 µM)
21 | CN(C)C1C(O)=C(C(N)=O)C(=O)[C@@]2(O)C(O)=C3C(=O)c4c(O)c(CNCC(C)(C)C)cc(CNCC(C)(C)C)c4C[C@H]3C[C@@H]12 (stereo partly shown) [Compound 64] | 32 (≈ 52.2 µM)
22 | CCCCN(CCCC)Cc1cc(N(C)C)c2c(c1O)C(=O)C1=C(O)[C@]3(O)C(=O)C(C(N)=O)=C(O)C(N(C)C)[C@@H]3C[C@@H]1C2 (stereo partly shown) [Compound 16] | > 32
23 | C[C@H]1c2ccc(CNC(=O)c3ccccc3)c(O)c2C(=O)C2=C(O)[C@]3(O)C(=O)C(C(N)=O)=C(O)[C@@H](N(C)C)[C@@H]3[C@@H](O)[C@@H]21 [Compound 37] | > 32
24 | CN(C)c1cc(CN2CCCCC2)c(O)c2c1C[C@H]1C[C@H]3[C@H](N(C)C)C(O)=C(C(N)=O)C(=O)[C@@]3(O)C(O)=C1C2=O [Compound 56] | 16 (≈ 28.8 µM)
25 | CN(C)c1cc(CNCc2cc(F)c(F)c(F)c2)c(O)c2c1C[C@H]1C[C@H]3C(N(C)C)C(O)=C(C(N)=O)C(=O)[C@@]3(O)C(O)=C1C2=O (stereo partly shown) [Compound 77] | > 32
26 | CC(C)CNCc1cc(N(C)C)c2c(c1O)C(=O)C1=C(O)[C@]3(O)C(=O)C(C(N)=O)=C(O)C(N(C)C)[C@@H]3C[C@@H]1C2 (stereo partly shown) [Compound 45] | 32 (≈ 59 µM)
27 | CN(C)c1cc(CNCC(C)(C)C)c(O)c2c1C[C@H]1C[C@H]3C(N(C)C)C(O)=C(C(N)=O)C(=O)[C@@]3(O)C(O)=C1C2=O (stereo partly shown) [Compound 29] | 32 (≈ 57.5 µM)

Row | Compound | MIC [µg/mL]
28 | CN(C)c1cc(CNCc2cccn2C)c(O)c2c1C[C@H]1C[C@H]3[C@H](N(C)C)C(O)=C(C(N)=O)C(=O)[C@@]3(O)C(O)=C1C2=O [Compound 38] | > 32
29 | CN(C)c1cc(CNCc2ccc(C#N)cc2)c(O)c2c1C[C@H]1C[C@H]3C(N(C)C)C(O)=C(C(N)=O)C(=O)[C@@]3(O)C(O)=C1C2=O (stereo partly shown) [Compound 78] | 32 (≈ 53.2 µM)
30 | CN(C)c1cc(CNC(=O)Nc2ccc(OC(F)(F)F)cc2)c(O)c2c1C[C@H]1C[C@H]3[C@H](N(C)C)C(O)=C(C(N)=O)C(=O)[C@@]3(O)C(O)=C1C2=O [Compound 27] | 8 (≈ 11.6 µM)
31 | CC(C)COC(=O)NCc1cc(N(C)C)c2c(c1O)C(=O)C1=C(O)[C@]3(O)C(=O)C(C(N)=O)=C(O)[C@H](N(C)C)[C@@H]3C[C@@H]1C2 [Compound 11] | > 32
32 | CC(=O)c1ccc(NC(=O)NCc2cc(N(C)C)c3c(c2O)C(=O)C2=C(O)[C@]4(O)C(=O)C(C(N)=O)=C(O)[C@@H](N(C)C)[C@@H]4C[C@@H]2C3)cc1 [Compound 25] | > 32
33 | Cc1cc(CNCc2cc(N(C)C)c3c(c2O)C(=O)C2=C(O)[C@]4(O)C(=O)C(C(N)=O)=C(O)[C@@H](N(C)C)[C@@H]4C[C@@H]2C3)oc1C [Compound 41] | > 32
34 | CCc1cc(CC)c2c(c1O)C(=O)C1=C(O)[C@]3(O)C(=O)C(C(N)=O)=C(O)[C@@H](N(C)C)[C@@H]3C[C@@H]1C2 [Compound 4] | > 32
35 | CN(C)c1ccc(-c2cc(CN)c(O)c3c2C[C@H]2C[C@H]4[C@@H](N(C)C)C(O)=C(C(N)=O)C(=O)[C@@]4(O)C(O)=C2C3=O)cc1 [Compound 28] | > 32
36 | CN(C)c1cc(CNC(=O)OCC(C)(C)C)c(O)c2c1C[C@H]1C[C@H]3[C@H](N(C)C)C(O)=C(C(N)=O)C(=O)[C@@]3(O)C(O)=C1C2=O [Compound 8] | > 32
37 | CN(C)CC(=O)NCc1cc(N(C)C)c2c(c1O)C(=O)C1=C(O)[C@]3(O)C(=O)C(C(N)=O)=C(O)C(N(C)C)[C@@H]3C[C@@H]1C2 (stereo partly shown) [Compound 60] | 16 (≈ 28 µM)
38 | CN(C)c1cc(CN(Cc2ccn[nH]2)Cc2ccn[nH]2)c(O)c2c1C[C@H]1C[C@H]3[C@H](N(C)C)C(O)=C(C(N)=O)C(=O)[C@@]3(O)C(O)=C1C2=O [Compound 55] | > 32
39 | CN(C)c1cc(CNc2nc(-c3ccc(F)cc3)cs2)c(O)c2c1C[C@H]1C[C@H]3C(N(C)C)C(O)=C(C(N)=O)C(=O)[C@@]3(O)C(O)=C1C2=O (stereo partly shown) [Compound 75] | > 32
40 | CC(C)CNCc1cc(N(C)C)c2c(c1O)C(=O)C1=C(O)[C@]3(O)C(=O)C(C(N)=O)=C(O)[C@@H](N(C)C)[C@@H]3C[C@@H]1C2 [Compound 14] | > 32
41 | C[C@H]1c2ccc(CNCC(C)(C)C)c(O)c2C(=O)C2=C(O)[C@]3(O)C(=O)C(C(N)=O)=C(O)[C@@H](N(C)C)[C@@H]3[C@@H](O)[C@@H]21 [Compound 33] | > 32
42 | CN(C)c1cc(CNC(N)=S)c(O)c2c1C[C@H]1C[C@H]3[C@H](N(C)C)C(O)=C(C(N)=O)C(=O)[C@@]3(O)C(O)=C1C2=O [Compound 61] | > 32
43 | CC(CC(F)(F)F)NCc1cc(N(C)C)c2c(c1O)C(=O)C1=C(O)[C@]3(O)C(=O)C(C(N)=O)=C(O)[C@@H](N(C)C)[C@@H]3C[C@@H]1C2 (stereo partly shown) [Compound 81] | 32 (≈ 53.6 µM)
44 | CC(=O)NCc1cc(N(C)C)c2c(c1O)C(=O)C1=C(O)[C@]3(O)C(=O)C(C(N)=O)=C(O)C(N(C)C)[C@@H]3C[C@@H]1C2 (stereo partly shown) [Compound 3] | > 32
45 | CN(C)[C@H]1C(O)=C(C(N)=O)C(=O)[C@@]2(O)C(O)=C3C(=O)c4c(O)c(CNCC(C)(C)C)cc(-c5ccoc5)c4C[C@H]3C[C@@H]12 [Compound 73] | > 32
46 | CCOC(=O)NCc1cc(N(C)C)c2c(c1O)C(=O)C1=C(O)[C@]3(O)C(=O)C(C(N)=O)=C(O)[C@H](N(C)C)[C@@H]3C[C@@H]1C2 [Compound 13] | 16 (≈ 28.6 µM)
47 | CN(C)c1cc(CNc2nc(C(F)(F)F)cs2)c(O)c2c1C[C@H]1C[C@H]3C(N(C)C)C(O)=C(C(N)=O)C(=O)[C@@]3(O)C(O)=C1C2=O (stereo partly shown) [Compound 76] | > 32
48 | CC(NCc1cc(N(C)C)c2c(c1O)C(=O)C1=C(O)[C@]3(O)C(=O)C(C(N)=O)=C(O)C(N(C)C)[C@@H]3C[C@@H]1C2)C(F)(F)F (stereo partly shown) [Compound 74] | > 32
49 | CCOC(=O)c1csc(NCc2cc(N(C)C)c3c(c2O)C(=O)C2=C(O)[C@]4(O)C(=O)C(C(N)=O)=C(O)C(N(C)C)[C@@H]4C[C@@H]2C3)n1 (stereo partly shown) [Compound 63] | > 32
